From patent US11279681B2, “3-alkyl bicyclic [4,5,0] hydroxamic acids as HDAC inhibitors” (Valo Health, Inc., priority 2015, dated 2022) come the findings set out here.

The test deals with T1, HDAC6 (Homo sapiens, UniProt Q9UBN7).
T1 sequence (Q9UBN7 1-1215): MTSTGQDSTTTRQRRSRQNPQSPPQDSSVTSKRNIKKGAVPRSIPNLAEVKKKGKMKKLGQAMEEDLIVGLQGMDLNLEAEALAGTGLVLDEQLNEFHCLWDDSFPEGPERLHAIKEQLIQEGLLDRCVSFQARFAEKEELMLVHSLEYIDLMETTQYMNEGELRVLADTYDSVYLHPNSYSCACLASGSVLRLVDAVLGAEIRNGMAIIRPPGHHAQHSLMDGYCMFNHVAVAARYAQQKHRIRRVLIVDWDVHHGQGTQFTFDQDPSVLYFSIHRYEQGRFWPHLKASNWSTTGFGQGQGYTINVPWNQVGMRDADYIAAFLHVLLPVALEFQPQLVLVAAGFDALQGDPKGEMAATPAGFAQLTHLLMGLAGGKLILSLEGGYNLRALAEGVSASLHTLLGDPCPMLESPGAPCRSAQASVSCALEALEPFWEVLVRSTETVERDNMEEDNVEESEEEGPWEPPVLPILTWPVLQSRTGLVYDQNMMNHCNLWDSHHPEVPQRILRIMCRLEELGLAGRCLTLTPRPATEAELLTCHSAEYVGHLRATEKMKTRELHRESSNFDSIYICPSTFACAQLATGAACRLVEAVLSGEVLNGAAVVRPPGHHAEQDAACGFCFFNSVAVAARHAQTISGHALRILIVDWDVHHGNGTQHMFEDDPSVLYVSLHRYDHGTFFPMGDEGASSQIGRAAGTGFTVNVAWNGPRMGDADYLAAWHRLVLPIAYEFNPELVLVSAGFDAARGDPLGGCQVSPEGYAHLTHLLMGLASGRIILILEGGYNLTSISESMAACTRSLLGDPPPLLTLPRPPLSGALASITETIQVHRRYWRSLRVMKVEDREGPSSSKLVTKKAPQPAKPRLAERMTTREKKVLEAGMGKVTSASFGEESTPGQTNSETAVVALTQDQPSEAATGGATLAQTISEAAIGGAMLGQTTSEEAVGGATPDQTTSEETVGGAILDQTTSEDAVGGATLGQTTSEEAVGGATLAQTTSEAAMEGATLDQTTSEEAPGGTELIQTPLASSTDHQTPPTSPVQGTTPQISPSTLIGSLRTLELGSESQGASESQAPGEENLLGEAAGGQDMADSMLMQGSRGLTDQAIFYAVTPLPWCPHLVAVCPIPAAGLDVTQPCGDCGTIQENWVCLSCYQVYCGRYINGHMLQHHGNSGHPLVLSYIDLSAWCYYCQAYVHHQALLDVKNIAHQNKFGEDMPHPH
The test is described as follows: In vitro histone deacetylase assay: enzymatic HDAC6 electrophoretic mobility shift assay. To be noted: full length human recombinant HDAC6, 1 nM enzyme, 2 μM peptide substrate RHKK(Ac)-NH2, 25° C.; read-out: Inhibitory Concentration (IC50) Values for Representative Compounds against HDAC6, Activity Range. The format is biochemical. In general terms: In EMSA bound probe runs differently from free probe, usually more slowly.
`O=C1CN(Cc2nc3ccccc3[nH]2)Cc2ccc(C(=O)NO)cc2N1`: the IC50 was 100 to 500 nM.

Take `COC1CCN(C(=O)N2Cc3ccc(C(=O)NO)cc3OC[C@@H]2C)C1` (stereo partly drawn) [(3S)-N-hydroxy-4-(3-methoxypyrrolidine-1-carbonyl)-3-methyl-2,3,4,5-tetrahydrobenzo[f][1,4]oxazepine-8-carboxamide]: the IC50 was at most 100 nM.

Take `O=C1CN(Cc2cccc3ccccc23)Cc2cc(C(=O)NO)ccc2N1`: the IC50 was at most 100 nM. Under `O=C(NO)c1ccc2c(c1)OCCN(c1nc3ccccc3n1CC1CCOCC1)C2` stands 100 to 500 nM; under `COc1ccc(CN2CCNc3ccc(C(=O)NO)cc3C2)cc1`, over 500 nM; under `CC(c1ccccc1)N1CC(=O)Nc2ccc(C(=O)NO)cc2C1` (stereo not drawn), at most 100 nM. The value for `C[C@H]1COc2cc(C(=O)NO)ccc2CN1C(=O)N1CCCC1` [(S)-N-hydroxy-3-methyl-4-(pyrrolidine-1-carbonyl)-2,3,4,5-tetrahydrobenzo[f][1,4]oxazepine-8-carboxamide] was at most 100 nM; that for `O=C(NO)c1ccc2c(c1)S(=O)(=O)N(Cc1ccccc1)CCO2` was 100 to 500 nM. Under `CC(C)c1ccc(CN2CC(=O)Nc3ccc(C(=O)NO)cc3C2)cc1` stands at most 100 nM; under `COc1ccc(S(=O)(=O)N2CCOc3cc(C(=O)NO)ccc3C2)cc1`, 100 to 500 nM.

Turning to `C[C@H]1COc2cc(C(=O)NO)ccc2CN1c1ccncc1` [(S)-N-hydroxy-3-methyl-4-(pyridin-4-yl)-2,3,4,5-tetrahydrobenzo[f][1,4]oxazepine-8-carboxamide], the IC50 fell in the range of 100 to 500 nM. The value for `O=C(NO)c1ccc2c(c1)OCCN(C1CCCCC1)C2` [4-cyclohexyl-N-hydroxy-2,3,4,5-tetrahydrobenzo[f][1,4]oxazepine-8-carboxamide] was over 500 nM.

`COc1ccc(CN2CC(=O)Nc3ccc(C(=O)NO)cc3C2)c(F)c1`: the IC50 is at most 100 nM.

As for `COc1ccc(NC(=O)N2Cc3ccc(C(=O)NO)cc3O[C@H](C)C2)cc1`, the IC50 was in the range of 100 to 500 nM. Under `COc1ccc(NC(=O)N2Cc3ccc(C(=O)NO)cc3OC[C@@H]2C)cc1` stands at most 100 nM; under `COc1ccc(NC(=O)N2Cc3ccc(C(=O)NO)cc3OC[C@H]2C(C)C)cc1`, 100 to 500 nM. The value for `CC(C)N1CCC(CN2CC(=O)Nc3ccc(C(=O)NO)cc3C2)CC1` was over 500 nM; that for `CC(c1ccc(F)cc1)N1Cc2ccc(C(=O)NO)cc2OC[C@@H]1C` (stereo partly drawn) [(3S)-4-(1-(4-fluorophenyl)ethyl)-N-hydroxy-3-methyl-2,3,4,5-tetrahydrobenzo[f][1,4]oxazepine-8-carboxamide] was 100 to 500 nM; that for `CC(C)[C@@H]1COc2cc(C(=O)NO)ccc2CN1` was at most 100 nM. As to `C[C@H]1COc2cc(C(=O)NO)ccc2CN1CC1CCC1` [(S)-4-(cyclobutylmethyl)-N-hydroxy-3-methyl-2,3,4,5-tetrahydrobenzo[f][1,4]oxazepine-8-carboxamide], the IC50 was at most 100 nM. As for `COC1CN(C(=O)N2Cc3ccc(C(=O)NO)cc3OC[C@@H]2C)C1` [(S)-N-hydroxy-4-(3-methoxyazetidine-1-carbonyl)-3-methyl-2,3,4,5-tetrahydrobenzo[f][1,4]oxazepine-8-carboxamide], the IC50 was at most 100 nM.

With `O=C1CN(Cc2ccc(OC(F)(F)F)cc2)Cc2cc(C(=O)NO)ccc2N1`, the IC50 is 100 to 500 nM. The value for `C[C@H]1COc2cc(C(=O)NO)ccc2CN1C1COC1` [(S)-N-hydroxy-3-methyl-4-(oxetan-3-yl)-2,3,4,5-tetrahydrobenzo[f][1,4]oxazepine-8-carboxamide] was over 500 nM; that for `CC(C)Oc1ccc(CN2CC(=O)Nc3ccc(C(=O)NO)cc3C2)cc1` was at most 100 nM. Under `CC[C@H]1COc2cc(C(=O)NO)ccc2CN1C` [(S)-3-ethyl-N-hydroxy-4-methyl-2,3,4,5-tetrahydrobenzo[f][1,4]oxazepine-8-carboxamide] stands at most 100 nM; under `CC(C)[C@H]1COc2cc(C(=O)NO)ccc2CN1c1cccnc1` [(S)-N-hydroxy-3-isopropyl-4-(pyridin-3-yl)-2,3,4,5-tetrahydrobenzo[f][1,4]oxazepine-8-carboxamide], at most 100 nM; under `COc1ccc(NC(=O)N2Cc3ccc(C(=O)NO)cc3O[C@@H](c3ccccc3)C2)cc1` [(S)-N8-hydroxy-N4-(4-methoxyphenyl)-2-phenyl-2,3-dihydrobenzo[f][1,4]oxazepine-4,8(5H)-dicarboxamide], at most 100 nM.

Turning to `Cc1ccccc1N1Cc2ccc(C(=O)NO)cc2OC[C@@H]1C` [(S)-N-hydroxy-3-methyl-4-(o-tolyl)-2,3,4,5-tetrahydrobenzo[f][1,4]oxazepine-8-carboxamide], the IC50 was at most 100 nM.

Regarding `O=C1CN(Cc2cccc(Cl)c2)Cc2cc(C(=O)NO)ccc2N1`, the IC50 was 100 to 500 nM. Under `C[C@H]1COc2cc(C(=O)NO)ccc2CN1C(=O)N1C[C@H]2CC[C@H](C1)O2` [(S)-4-((1R,5R)-8-oxa-3-azabicyclo[3.2.1]octane-3-carbonyl)-N-hydroxy-3-methyl-2,3,4,5-tetrahydrobenzo[f][1,4]oxazepine-8-carboxamide] stands at most 100 nM; under `CN(C)CCN1CCOc2cc(C(=O)NO)ccc2C1`, over 500 nM. The value for `COc1ccc(CN2Cc3ccc(C(=O)NO)cc3OCC2(C)C)cc1` was 100 to 500 nM; that for `COc1ccc(CN2CCOc3ccc(C(=O)NO)cc3C2)nc1` was over 500 nM; that for `COc1ccc(CCN2CC(=O)Nc3ccc(C(=O)NO)cc3C2)cc1` was 100 to 500 nM. As for `O=C1CN(Cc2cn3ccccc3n2)Cc2cc(C(=O)NO)ccc2N1`, the IC50 was at most 100 nM. The value for `O=C1CN(Cc2ccccn2)Cc2cc(C(=O)NO)ccc2N1` was over 500 nM. Under `C[C@H]1COc2cc(C(=O)NO)ccc2CN1CC1CCCO1` (stereo partly drawn) [(3S)-N-hydroxy-3-methyl-4-((tetrahydrofuran-2-yl)methyl)-2,3,4,5-tetrahydrobenzo[f][1,4]oxazepine-8-carboxamide] stands at most 100 nM; under `COc1ccc(S(=O)(=O)N2Cc3ccc(C(=O)NO)cc3OC[C@H]2C)cc1`, over 500 nM; under `COc1ccc(CCN2CCOc3cc(C(=O)NO)ccc3C2)cc1`, 100 to 500 nM. Under `O=C1CN(Cc2ccc(-n3cccc3)cc2)Cc2cc(C(=O)NO)ccc2N1` stands at most 100 nM; under `COCCCN1Cc2ccc(C(=O)NO)cc2OC[C@@H]1C` [(S)-N-hydroxy-4-(3-methoxypropyl)-3-methyl-2,3,4,5-tetrahydrobenzo[f][1,4]oxazepine-8-carboxamide], 100 to 500 nM; under `C[C@H]1COc2cc(C(=O)NO)ccc2CN1C(=O)Nc1ccccn1` [(S)-N8-hydroxy-3-methyl-N4-(pyridin-2-yl)-2,3-dihydrobenzo[f][1,4]oxazepine-4,8(5H)-dicarboxamide], at most 100 nM. On to `COC[C@@H]1COc2cc(C(=O)NO)ccc2CN1Cc1ccc(OC)cc1` [(R)-N-hydroxy-4-(4-methoxybenzyl)-3-(methoxymethyl)-2,3,4,5-tetrahydrobenzo[f][1,4]oxazepine-8-carboxamide], for which the IC50 is at most 100 nM. The value for `O=C(NO)c1ccc2c(c1)OCCN(Cc1nc3ccccc3[nH]1)C2` was at most 100 nM; that for `COc1ccc(NC(=O)N2CCOc3cc(C(=O)NO)cnc3C2)cc1` was at most 100 nM. Under `O=C1CN(Cc2ccc(-c3nccs3)cc2)Cc2cc(C(=O)NO)ccc2N1` stands at most 100 nM. Under `C[C@H]1COc2cc(C(=O)NO)ccc2CN1c1cccnc1` [(S)-N-hydroxy-3-methyl-4-(pyridin-3-yl)-2,3,4,5-tetrahydrobenzo[f][1,4]oxazepine-8-carboxamide] stands at most 100 nM; under `COC[C@H]1COc2cc(C(=O)NO)ccc2CN1c1ccccc1` [(S)-N-hydroxy-3-(methoxymethyl)-4-phenyl-2,3,4,5-tetrahydrobenzo[f][1,4]oxazepine-8-carboxamide], at most 100 nM; under `C[C@H]1COc2cc(C(=O)NO)ccc2CN1` [(S)—N-hydroxy-3-methyl-2,3,4,5-tetrahydrobenzo[f][1,4]oxazepine-8-carboxamide], 100 to 500 nM. As to `COc1ccc(CN2Cc3ccc(C(=O)NO)cc3OC[C@H]2C(C)C)cc1`, the IC50 is at most 100 nM. Under `COc1ccc(CN2CCOc3ccc(C(=O)NO)cc3C2=O)cc1` stands over 500 nM.
